According to patent US5734077A, “Substituted 2,2-dimethyl-omega-phenoxyalkanoic acids and esters” (Adir ET Compagnie, priority 1995, dated 1998):
Like-named read-outs stand apart in the source and are kept apart here.

Experiments:
[1] = test system: human low density lipoproteins (LDLs); assay: protective activity against oxidation of human LDLs induced by copper sulphate (TBARS determination); type: biochemical; settings: copper sulphate 5 μM, 3 hours at 37° C., read-out: IC50, protection against the oxidation of LDLs
Procedure: The dose-effect relationship of those compounds was compared with that of probucol and a soluble analogue of vitamin E, trolox.
The anti-oxidant activity of the compounds was measured according to the method of Wallin et al. (Analytical Biochemistry, 1993, 208, 10-15).
Human LDLs are incubated for 3 hours at 37° C. in the presence of an oxidising agent, copper sulphate at a concentration of 5 μM, and of the compound to be tested at concentrations ranging from 10^-8 M to 2.5×10^-6 M. A non-oxidised control (LDLs only) and an oxidised control (LDLs plus copper sulphate) are also included in each of the series of tests.
The products of the LDL oxidation reaction are quantified by the colorimetric determination of "thiobarbituric acid reactive substances" (TBARS).
The protective activity of the tested compounds is expressed by the IC50 value, which corresponds to the concentration of product required to inhibit by 50% the oxidation of LDLs observed in the absence of product. The IC50 value was calculated from the dose-response curve.

[2] = test system: plasma lipids (triglycerides, total cholesterol); assay: hypolipaemic activity in vivo in a diet-induced model of combined hyperlipaemia in the hamster; parameters: species or system Golden Syrian hamster; settings: 200 mg/kg/day per os, 1 week; for change in vivo at 200 mg/kg: Mesocricetus auratus, po, 168 h, hamsters on lipid-rich diet, versus control group, bezafibrate: mean ± sem of five experiments; for hypocholesterolaemic effect compared with bezafibrate (in words) / triglyceride-lowering effectiveness compared with bezafibrate (in words): hamster, bezafibrate 200 mg/kg/day
Procedure: The hypolipaemic activity of certain representative compounds of the invention was evaluated in vivo in a diet-induced model of combined hyperlipaemia in the hamster.
Golden Syrian hamsters are given a diet rich in lipids (standard diet+0.5% cholesterol+10% cocoa oil) for 3 weeks before the beginning of treatment. That diet induces hypercholesterolaemia and hypertriglyceridaemia.
The products are prepared in tragacanth gum and are administered per os by forced gastric feeding for 1 week at a dose of 200 mg/kg/day. Each product is tested on a group of 6 animals. A placebo group (control) and a group of animals treated with a reference product (bezafibrate at a dose of 200 mg/kg/day) are included in each experiment.
At the end of the treatment, the animals are anaesthetised with ether. Blood is removed by abdominal puncture and the triglycerides and total cholesterol in the serums are determined. Five independent experiments were carried out in accordance with that protocol in order to evaluate the hypolipaemic effect of thirteen compounds of this invention.
The results are shown in Table B. The effect of the treatment is expressed as a percentage variation by comparison with the control group, calculated from the means of the absolute values of triglycerides and of total cholesterol. A negative value thus reflects a hypolipaemic effect of the treatment indicated. The values shown for bezafibrate represent the mean values (±sem) of five experiments.

[3] = read-out: Total cholesterol (% variation/control)
[4] = read-out: Triglycerides (% variation/control)

Row | SMILES | IC50 [1] [nM] | change in vivo at 200 mg/kg [2, 3] [%] | change in vivo at 200 mg/kg [2, 4] [%] | hypocholesterolaemic effect compared with bezafibrate (in words) [2] | triglyceride-lowering effectiveness compared with bezafibrate (in words) [2]
1 | CC(C)(CCCOc1ccc(CCOc2cc(C(C)(C)C)c(O)c(C(C)(C)C)c2)cc1)C(=O)O [Example 16, 2,2-dimethyl-5-{4-[2-(4-hydroxy-3,5-di-tert-butylphenoxy)ethyl]phenoxy}pentanoic acid] | 770 | -66 | -54 | – | –
2 | Cc1c(C)c2c(c(C)c1O)CCC(C)(CCCc1cccc(OCCCC(C)(C)C(=O)O)c1)O2 (racemic) [Example 19, R,S-2,2-dimethyl-5-{3-[3-(6-hydroxy-2,5,7,8-tetramethyl-3,4-dihydrobenzopyran-2-yl)-propyl]phenoxy}pentanoic acid] | 680 | – | – | – | –
3 | CC(C)(CCCOc1cccc(CCCc2cc(C(C)(C)C)c(O)c(C(C)(C)C)c2)c1)C(=O)O [Example 20, 2,2-dimethyl-5-{3-[3-(4-hydroxy-3,5-di-tert-butylphenyl)propyl]phenoxy}pentanoic acid] | 1100 | -58 | -71 | – | –
4 | CC(C)(CCCOc1ccc(CCSc2cc(C(C)(C)C)c(O)c(C(C)(C)C)c2)cc1)C(=O)O [Example 1, 2,2-Dimethyl-5-{4-[2-(3,5-di-tert-butyl-4-hydroxyphenylthio)ethyl]phenoxy}pentanoic acid] | 420 | – | – | – | –
5 | CC(C)(CCCOc1ccc(CCCSc2cc(C(C)(C)C)c(O)c(C(C)(C)C)c2)cc1)C(=O)O [Example 3, 2,2-dimethyl-5-{4-[3-(3,5-di-tert-butyl-4-hydroxyphenylthio)propyl]phenoxy}pentanoic acid] | 530 | -77 | -87 | hypocholesterolaemic effect at least as great as bezafibrate | statistically at least as effective as bezafibrate
6 | CC(C)(Sc1cc(C(C)(C)C)c(O)c(C(C)(C)C)c1)Sc1cc(C(C)(C)C)c(O)c(C(C)(C)C)c1 [Probucol, probucol, reference compound] | 5800 | – | – | – | –
7 | Cc1c(C)c2c(c(C)c1O)CCC(C)(C(=O)O)O2 (centres unmarked) [Trolox, trolox, reference compound] | 1600 | – | – | – | –
8 | CC(C)(CCCOc1ccc(OCCCOc2cc(C(C)(C)C)c(O)c(C(C)(C)C)c2)cc1)C(=O)O [Example 12, 2,2-dimethyl-5-{4-[3-(3,5-di-tert-butyl-4-hydroxyphenoxy)propyloxy]phenoxy}pentanoic acid] | 640 | -63 | -84 | hypocholesterolaemic effect at least as great as bezafibrate | statistically at least as effective as bezafibrate
9 | CC(C)(Oc1ccc(CCNC(=O)c2ccc(Cl)cc2)cc1)C(=O)O [Bezafibrate, bezafibrate, reference compound] | – | -48 ± 4 | -46 ± 19 | – | –
10 | CC(C)(CCCOc1ccc(CCCOc2cc(C(C)(C)C)c(O)c(C(C)(C)C)c2)cc1)C(=O)O [Example 10, 2,2-dimethyl-5-{4-[3-(3,5-di-tert-butyl-4-hydroxyphenoxy)propyl]phenoxy}pentanoic acid] | 240 | – | – | – | –
11 | Cc1c(C)c2c(c(C)c1O)CCC(C)(C=CCCOc1ccc(OCCCC(C)(C)C(=O)O)cc1)O2 (racemic) [Example 17, R,S-2,2-dimethyl-5-{4-[4-(6-hydroxy-2,5,7,8-tetramethyl-3,4-dihydrobenzopyran-2-yl)but-3-enyloxy]phenoxy}pentanoic acid] | 960 | – | – | – | –
12 | CC(C)(CCCOc1cccc(CCOc2cc(C(C)(C)C)c(O)c(C(C)(C)C)c2)c1)C(=O)O [Example 13, 2,2-dimethyl-5-{3-[2-(3,5-di-tert-butyl-4-hydroxyphenoxy)ethyl]phenoxy}pentanoic acid] | 300 | -68 | -84 | hypocholesterolaemic effect at least as great as bezafibrate | statistically at least as effective as bezafibrate
13 | CC(C)(CCCOc1cccc(CCSc2cc(C(C)(C)C)c(O)c(C(C)(C)C)c2)c1)C(=O)O [Example 8, 2,2-dimethyl-5-{3-[2-(3,5-di-tert-butyl-4-hydroxyphenylthio)ethyl]phenoxy}pentanoic acid] | 380 | -59 | -59 | – | –
14 | Cc1c(C)c2c(c(C)c1O)CCC(C)(CCCCOc1ccc(OCCCC(C)(C)C(=O)O)cc1)O2 (racemic) [Example 18, R,S -2,2-dimethyl-5-{4-[4-(6-hydroxy-2,5,7,8-tetramethyl-3,4-dihydrobenzopyran-2-yl)butyloxy]phenoxy}pentanoic acid] | 720 | -61 | -79 | – | –
15 | Cc1cc(SCCCc2ccc(OCCCC(C)(C)C(=O)O)cc2)c(C)c(C)c1O [Example 4, 2,2-dimethyl-5-{4-[3-(4-hydroxy-2,3,5-trimethylphenylthio)propyl]phenoxy}pentanoic acid] | 460 | -48 | -77 | – | –
16 | CC(C)(CCCOc1ccc(OCCCSc2cc(C(C)(C)C)c(O)c(C(C)(C)C)c2)cc1)C(=O)O [Example 5, 2,2-dimethyl-5-{4-[3-(3,5-di-tert-butyl-4-hydroxyphenylthio)propyloxy]phenoxy}pentanoic acid] | 550 | – | – | – | –

The remaining molecules from weak to strong by IC50 [1], led by results:

Row | IC50 [1] [nM] | SMILES | change in vivo at 200 mg/kg [2, 3] [%] | change in vivo at 200 mg/kg [2, 4] [%] | hypocholesterolaemic effect compared with bezafibrate (in words) [2] | triglyceride-lowering effectiveness compared with bezafibrate (in words) [2]
17 | 210 | CC(C)(CCCOc1ccc(CCSc2cc(C(C)(C)C)c(O)c(C(C)(C)C)c2)cc1)C(=O)O [Example 2, 2,2-dimethyl-5-{4-[2-(3,5-di-tert-butyl-4-hydroxyphenylthio)ethyl]phenoxy}pentanoic acid] | -52 | -82 | hypocholesterolaemic effect at least as great as bezafibrate | statistically at least as effective as bezafibrate
18 | 200 | Cc1cc(OCCc2ccc(OCCCC(C)(C)C(=O)O)cc2)c(C)c(C)c1O [Example 9, 2,2-dimethyl-5-{4-[2-(4-hydroxy-2,3,5-trimethylphenoxy)ethyl]phenoxy}pentanoic acid] | – | – | – | –
19 | 190 | Cc1cc(OCCCOc2ccc(OCCCC(C)(C)C(=O)O)cc2)c(C)c(C)c1O [Example 11, 2,2-dimethyl-5-{4-[3-(4-hydroxy-2,3,5-trimethylphenoxy)propyloxy]phenoxy}pentanoic acid] | -55 | -60 | – | –
20 | 170 | Cc1cc(SCCCOc2ccc(OCCCC(C)(C)C(=O)O)cc2)c(C)c(C)c1O [Example 6, 2,2-dimethyl-5-{4-[3-(4-hydroxy-2,3,5-trimethylphenylthio)propyloxy]phenoxy}pentanoic acid] | -39 | -59 | – | –
21 | 97 | Cc1cc(OCCCc2ccc(OCCCC(C)(C)C(=O)O)cc2)c(C)c(C)c1O [Example 15, 2,2-dimethyl-5-{4-[3-(4-hydroxy-2,3,5-trimethylphenoxy)propyl]phenoxy}pentanoic acid] | -77 | -93 | hypocholesterolaemic effect at least as great as bezafibrate | statistically at least as effective as bezafibrate
22 | 88 | Cc1cc(OCCc2cccc(OCCCC(C)(C)C(=O)O)c2)c(C)c(C)c1O [Example 14, 2,2-dimethyl-5-{3-[2-(4-hydroxy-2,3,5-trimethylphenoxy)ethyl]phenoxy}pentanoic acid] | – | – | – | –
23 | 68 | Cc1cc(SCCc2cccc(OCCCC(C)(C)C(=O)O)c2)c(C)c(C)c1O [Example 7, 2,2-dimethyl-5-{3-[2-(4-hydroxy-2,3,5-trimethylphenylthio)ethyl]phenoxy}pentanoic acid] | -47 | -83 | hypocholesterolaemic effect at least as great as bezafibrate | statistically at least as effective as bezafibrate
